Tests used:
DENV-2 (strain TSV01) [1] = assay: Antiviral in vivo efficacy in dengue mouse model; conditions: oral gavage, 3 consecutive days, AG129 mice, qRT-PCR
Protocol: Antiviral In Vivo Efficacy in Dengue Mouse Model
AG129 mice (lacking IFN-α/β and IFN-γ receptors, (Schul, W. et al. 2007. J. Infect. Dis., 195, 665-74)) was obtained from Biological Resource Center (BRC), Singapore. Male and female AG129 mice aged 8 to 14 weeks (weighed 20-30 grams, n=6 per group) were used. Infection of DENV-2 (strain TSV01) was given intraperitoneally (500 μL, 1.4×10^7 pfu/mL). The DENV-2 strain TSVO1 was used in the mouse model and was propagated in C6/36 mosquito cells. Compounds were formulated (% w/w) in either 0.5% methylcellulose, 0.5% Tween and 99.0% deionized water or 20% polyethylene glycol (PEG300), 10% Cremophor RH40, and 70% 100 mM pH 3 citrate buffer (% v/v). Compounds were dosed immediately after infection through oral gavage for 3 consecutive days. Terminal blood sample (anticoagulant: K2EDTA) was obtained for viremia read-out by qRT-PCR as previously described (Santiago, G. A., et al. 2013. PLoS Negl. Trop. Dis., 7, e2311).

[2] = system: Dengue 4 virus MY01-22713; assay: High-content imaging cell-based flavivirus immunodetection (HCl-CFI) assay, Dengue 4; conditions: Dengue virus, A549, 48 h, read-out: Dengue 4 virus MY01-22713 in A549 using HCl [Inhibitor/IC50] Qualified AC50, A549 cells, 48 h, viral E protein expression
[3] = system: Dengue 2 virus MY97-10340; assay: High-content imaging cell-based flavivirus immunodetection (HCl-CFI) assay, Dengue 2; conditions: Dengue virus, A549, 48 h, read-out: Dengue 2 virus MY97-10340 in A549 using HCl [Inhibitor/IC50] Qualified AC50, A549 cells, MOI 0.3, 48 h, viral E protein expression
Method in brief: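 A549 cells infected at MOI 0.3, treated with 3-fold, 10-point compound dilutions for 48 h. After paraformaldehyde fixation, viral E protein immunostained with 4G2 antibody and nuclei counterstained; imaged by high-content imaging. EC50 = concentration reducing E protein expression by 50%, from dose-response curves.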

[4] = system: Dengue 3 virus MY05-34640-WT-C6/36; assay: High-content imaging cell-based flavivirus immunodetection (HCl-CFI) assay, Dengue 3; conditions: Dengue virus, A549, 48 h, read-out: Dengue 3 virus MY05-34640-WT-C6/36 in A549 using HCl [Inhibitor/IC50] Qualified AC50
[5] = system: Dengue 1 virus MY97-10245; assay: High-content imaging cell-based flavivirus immunodetection (HCl-CFI) assay, Dengue 1; conditions: Dengue virus, A549, 48 h, read-out: Dengue 1 virus MY97-10245 in A549 using HCl [Inhibitor/IC50] Qualified AC50
DENV-2 (strain TSV01) [6] = assay: Antiviral in vivo efficacy in dengue mouse model; conditions: 180 mg/kg single dose, oral gavage, AG129 mice, qRT-PCR

SMILES	Log DENV-2 viremia reduction (DENV-2 (strain TSV01) [1]; 30 mg/kg b.i.d.)	Log DENV-2 viremia reduction (DENV-2 (strain TSV01) [1]; 100 mg/kg q.d.)	Log DENV-2 viremia reduction (DENV-2 (strain TSV01) [1]; 10 mg/kg b.i.d.)	Log DENV-2 viremia reduction (DENV-2 (strain TSV01) [1]; 60 mg/kg q.d.)	Log DENV-2 viremia reduction (DENV-2 (strain TSV01) [1]; 100 mg/kg b.i.d.)	EC50 [2]	EC50 [3]	EC50 [4]	EC50 [5]	Log DENV-2 viremia reduction (DENV-2 (strain TSV01) [6])
COc1cc(CC(=O)Nc2sc3c(c2C#N)CN(CC2CCCCC2)CC3)ccc1S(N)(=O)=O [Example 83, N-(3-cyano-5-(cyclohexylmethyl)-4,5,6,7-tetrahydrothieno[3,2-c]pyridin-2-yl)-2-(3-methoxy-4-sulfamoylphenyl)acetamide]	0.60 Log	0.94 Log	–	–	–	–	–	–	–	–
CC1(C)Cc2sc(NC(=O)Cc3ccc(S(N)(=O)=O)cc3)c(C#N)c2CN1CC1CCCCC1 [Example 71, N-(3-cyano-5-(cyclohexylmethyl)-6,6-dimethyl-4,5,6,7-tetrahydrothieno[3,2-c]pyridin-2-yl)-2-(4-sulfamoylphenyl)acetamide]	1.45 Log	–	0.51 Log	1.54 Log	3.0 Log	< 100 nM	< 100 nM	< 100 nM	< 100 nM	1.49 Log
CC1(C)Cc2sc(NC(=O)Cc3ccc(S(N)(=O)=O)cc3)c(C#N)c2CN1CC1CC(F)(F)C1 [Example 77, N-(3-cyano-5-((3,3-difluorocyclobutyl)methyl)-6,6-dimethyl-4,5,6,7-tetrahydrothieno[3,2-c]pyridin-2-yl)-2-(4-sulfamoylphenyl)acetamide]	0.62 Log	–	–	–	–	< 100 nM	< 100 nM	< 100 nM	100 to 1000 nM	–
N#Cc1c(NC(=O)Cc2ccc(S(N)(=O)=O)cc2)sc2c1CCN(Cc1cccc(F)c1)C2 [Example 100, N-(3-cyano-6-(3-fluorobenzyl)-4,5,6,7-tetrahydrothieno[2,3-c]pyridin-2-yl)-2-(4-sulfamoylphenyl)acetamide]	–	–	–	–	1.50 Log	–	–	–	–	–
CC1Cc2sc(NC(=O)Cc3ccc(S(N)(=O)=O)cc3)c(C#N)c2CN1Cc1cccc(F)c1 (stereo not drawn) [Example 53, N-(3-cyano-5-(3-fluorobenzyl)-6-methyl-4,5,6,7-tetrahydrothieno[3,2-c]pyridin-2-yl)-2-(4-sulfamoylphenyl)acetamide]	0.80 Log	1.06 Log	–	–	1.78 Log	< 100 nM	< 100 nM	< 100 nM	100 to 1000 nM	–
N#Cc1c(NC(=O)Cc2ccc(S(N)(=O)=O)cc2)sc2c1CCN(Cc1ccc(F)cc1Cl)C2 [Example 107, N-(6-(2-chloro-4-fluorobenzyl)-3-cyano-4,5,6,7-tetrahydrothieno[2,3-c]pyridin-2-yl)-2-(4-sulfamoylphenyl)acetamide]	–	–	–	–	–	< 100 nM	100 to 1000 nM	100 to 1000 nM	100 to 1000 nM	–
N#Cc1c(NC(=O)Cc2ccc(S(N)(=O)=O)cc2)sc2c1CCN(Cc1ccccc1Cl)C2 [Example 114, N-(6-(2-chlorobenzyl)-3-cyano-4,5,6,7-tetrahydrothieno[2,3-c]pyridin-2-yl)-2-(4-sulfamoylphenyl)acetamide]	–	–	–	–	–	< 100 nM	100 to 1000 nM	100 to 1000 nM	100 to 1000 nM	–
CC(O)(c1ccc(CC(=O)Nc2sc3c(c2C#N)CN(CC2CCCCC2)CC3)cc1)C(F)(F)F (stereo not drawn) [Example 8, N-(3-cyano-5-(cyclohexylmethyl)-4,5,6,7-tetrahydrothieno[3,2-c]pyridin-2-yl)-2-(4-(1,1,1-trifluoro-2-hydroxypropan-2-yl)phenyl)acetamide]	–	–	–	–	–	100 to 1000 nM	100 to 1000 nM	100 to 1000 nM	> 1000 nM	–
N#Cc1c(NC(=O)Cc2ccc(S(N)(=O)=O)cc2)sc2c1CCN(Cc1c(Cl)cccc1Cl)C2 [Example 112, N-(3-cyano-6-(2,6-dichlorobenzyl)-4,5,6,7-tetrahydrothieno[2,3-c]pyridin-2-yl)-2-(4-sulfamoylphenyl)acetamide]	–	–	–	–	–	< 100 nM	100 to 1000 nM	100 to 1000 nM	> 1000 nM	–
COc1cccc(CC(=O)Nc2sc3c(c2C#N)CN(Cc2cccc(F)c2)CC3)c1OC [Example 34, N-(3-cyano-5-(3-fluorobenzyl)-4,5,6,7-tetrahydrothieno[3,2-c]pyridin-2-yl)-2-(2,3-dimethoxyphenyl)acetamide]	–	–	–	–	–	100 to 1000 nM	> 1000 nM	100 to 1000 nM	> 1000 nM	–
COc1cc(Cl)cc(CC(=O)Nc2sc3c(c2C#N)CN(Cc2cccc(F)c2)CC3)c1 [Example 39, 2 (3 chloro-5-methoxyphenyl)-N-(3-cyano-5-(3-fluorobenzyl)-4,5,6,7-tetrahydrothieno[3,2-c]pyridin-2-yl)acetamide]	–	–	–	–	–	100 to 1000 nM	> 1000 nM	100 to 1000 nM	> 1000 nM	–
N#Cc1c(NC(=O)Cc2ccc3c(c2)CNC3)sc2c1CN(CC1CCCCC1)CC2 [Example 20, N-(3-cyano-5-(cyclohexylmethyl)-4,5,6,7-tetrahydrothieno[3,2-c]pyridin-2-yl)-2-(isoindolin-5-yl)acetamide]	–	–	–	–	–	> 1000 nM	100 to 1000 nM	> 1000 nM	> 1000 nM	–
N#Cc1c(NC(=O)Cc2ccc(S(N)(=O)=O)cc2)sc2c1CCN(Cc1cc(Cl)ccc1Cl)C2 [Example 109, N-(3-cyano-6-(2,5-dichlorobenzyl)-4,5,6,7-tetrahydrothieno[2,3-c]pyridin-2-yl)-2-(4-sulfamoylphenyl)acetamide]	–	–	–	–	1.60 Log	100 to 1000 nM	100 to 1000 nM	100 to 1000 nM	> 1000 nM	–
COCCOc1cccc(CC(=O)Nc2sc3c(c2C#N)CN(Cc2cccc(F)c2)CC3)c1 [Example 31, N-(3-cyano-5-(3-fluorobenzyl)-4,5,6,7-tetrahydrothieno[3,2-c]pyridin-2-yl)-2-(3-(2-methoxyethoxy)phenyl)acetamide]	–	–	–	–	–	100 to 1000 nM	100 to 1000 nM	100 to 1000 nM	> 1000 nM	–
CC1Cc2sc(NC(=O)Cc3ccc(S(=O)(=O)NCC4CCCCC4)cc3)c(C#N)c2CN1CC1CCCCC1 (stereo not drawn) [Example 63, N-(3-cyano-5-(cyclohexylmethyl)-6-methyl-4,5,6,7-tetrahydrothieno[3,2-c]pyridin-2-yl)-2-(4-(N-(cyclohexylmethyl)sulfamoyl)phenyl)acetamide]	–	–	–	–	–	100 to 1000 nM	100 to 1000 nM	100 to 1000 nM	> 1000 nM	–
N#Cc1c(NC(=O)Cc2ccc3c(c2)CNS3(=O)=O)sc2c1CN(CC1CCCCC1)CC2 [Example 16, N-(3-cyano-5-(cyclohexylmethyl)-4,5,6,7-tetrahydrothieno[3,2-c]pyridin-2-yl)-2-(1,1-dioxido-2,3-dihydrobenzo[d]isothiazol-5-yl)acetamide]	–	–	–	–	–	< 100 nM	< 100 nM	< 100 nM	100 to 1000 nM	–
COC(=O)c1cccc(CN2CCc3c(sc(NC(=O)Cc4ccc(S(C)(=O)=O)cc4)c3C#N)C2)c1 [Example 120, methyl 3-((3-cyano-2-(2-(4-(methylsulfonyl)phenyl)acetamido)-4,7-dihydrothieno[2,3-c]pyridin-6(51-1)-yl)methyl)benzoate]	–	–	–	–	–	< 100 nM	100 to 1000 nM	100 to 1000 nM	> 1000 nM	–
COc1cccc(CC(=O)Nc2sc3c(c2C#N)CN(Cc2cccc(F)c2)CC3)c1Cl [Example 41, 2-(2-chloro-3-methoxyphenyl)-N-(3-cyano-5-(3-fluorobenzyl)-4,5,6,7-tetrahydrothieno[3,2-c]pyridin-2-yl)acetamide]	–	–	–	–	–	100 to 1000 nM	100 to 1000 nM	100 to 1000 nM	> 1000 nM	–
CC1Cc2sc(NC(=O)Cc3ccc(S(N)(=O)=O)cc3)c(C#N)c2CN1C(C)c1ccccc1 (single isomer, unassigned) [Example 54, N-(3-cyano-6-methyl-5-(1-phenylethyl)-4,5,6,7-tetrahydrothieno[3,2-c]pyridin-2-yl)-2-(4-sulfamoylphenyl)acetamide]	–	–	–	–	–	< 100 nM	< 100 nM	< 100 nM	100 to 1000 nM	–

From US12012417B2, “N-substituted tetrahydrothienopyridine derivatives and uses thereof” (NOVARTIS AG, priority 2018, dated 2024)
